Structures are written as SMILES.

For one data set, the target named is T1, human M1 mAChR (Homo sapiens, UniProt P11229).
T1 construct: expressed in transfected cells
T1 sequence (P11229 1-460): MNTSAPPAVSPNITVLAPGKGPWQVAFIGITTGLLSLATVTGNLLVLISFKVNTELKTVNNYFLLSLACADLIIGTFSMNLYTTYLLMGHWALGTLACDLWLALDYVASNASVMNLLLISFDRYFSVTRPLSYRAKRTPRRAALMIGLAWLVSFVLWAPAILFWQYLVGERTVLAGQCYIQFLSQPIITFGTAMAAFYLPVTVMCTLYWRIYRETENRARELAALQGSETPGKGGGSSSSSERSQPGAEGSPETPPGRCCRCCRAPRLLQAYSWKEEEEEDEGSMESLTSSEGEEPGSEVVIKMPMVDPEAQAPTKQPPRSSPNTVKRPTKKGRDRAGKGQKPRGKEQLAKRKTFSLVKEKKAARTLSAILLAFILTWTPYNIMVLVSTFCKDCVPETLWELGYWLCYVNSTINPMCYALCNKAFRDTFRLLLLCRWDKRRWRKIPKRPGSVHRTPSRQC
The data set is described as follows: Whole-cell functional agonist activity, FLIPR Ca2+ release, U2OS-based human M1 mAChR stable cell line. The note with it: for EC50: agonist, FLIPR Ca2+ release, U2OS human M1 cells; for Emax: top of curve, % activity vs MAX control ligand, FLIPR Ca2+. An excerpt:
(§1) Whole-cell functional agonist activity in cells expressing recombinant human muscarinic receptor subtypes.
(§2) ThermoFisher's FLIPR™ (Fluorescence Imaging Plate Reader) was used to quantify Ca^2+ release, a functional effect associated with Gaq-coupled M1 and M5 mAChRs. CisBio's phospho-ERK (pERK) Thr202/Tyr204 was used to evaluate Gai/o-coupled M2 and M4 mAChRs responses.
One day before the assay, M1, M3, and M5 cells were thawed out and plated at 10,000 cells/well into black-walled, clear-bottom, Poly-D-lysine coated 384-well microplates and incubated at 37° C. and 5% CO2 in MEME+10% FBS+1× penicillin/streptomycin/glutamine, for the M1 and M3 cell lines and F-12+10% FBS+1× penicillin/streptomycin/glutamine for the M5 cell line. […] The M1 and M5 responses were analyzed using the CBIS data analysis suite (ChemInnovation, CA).
(§3) Percentage activity was calculated using the following formula: % Activity=100%×(mean RFU of test sample mean RFU of vehicle control)/(mean MAX RFU control ligand mean RFU of vehicle control) where RFU is relative fluorescence unit. The M2 and the M4 cells were thawed out one day before the assay and plated at 2,000 and 1,000 cells per well, respectively, in […] of DMEM/F12+10% FBS in ProxiPlate 384-well white-walled, white-bottom tissue culture-treated plates and incubated at 37° C. and 5% CO2 overnight. Before the assay, cells were serum-starved at 37° C. in 5% CO2 for 4 hours by replacing culture media with […] of F12 media with 8 mM HEPES. The pERK assay was run according to assay kit instructions with minor volume modifications outlined below.

Data set [1] is described as follows: Human liver microsome stability. The class given is in vitro ADME. The note with it: human liver microsomes; for microsomal CLint at 100 nM: apparent intrinsic clearance, no unit in table (μL/min/pmol, μL/min/mg or μL/min/Mcell); for Parent at 60 min (%) / half-life at 100 nM: 100 nM, 37° C., tartrate salt. How it is done: Human Liver Microsome Stability
Test compounds were dissolved in DMSO to prepare 10 mM stock solutions, diluted to a final test concentration of 100 nM, and incubated at 37° C. with human liver microsomes. Metabolic stability, expressed as a percent of the parent compound remaining, was assessed at 0, 15, 30, 45, and 60 minutes and calculated by comparing the compound's peak area at the time point relative to that at time-0. The half-life (T1/2) was estimated from the slope of the initial linear range of the logarithmic curve of compound remaining (%) vs. time, assuming first-order kinetics. The apparent intrinsic clearance (CLint, in μL/min/pmol, μL/min/mg or μL/min/Mcell) was calculated according to the following formula: CLint=0.693 T1/2*(mg protein/μL or million cells/μL or pmol CYP isoyme/μL).
Background: Liver microsomes are vesicles of endoplasmic reticulum, rich in cytochrome P450 enzymes.

In another data set the target is T2, human M3 mAChR (Homo sapiens, UniProt P20309).
T2 construct: expressed in transfected cells
The data set is described as follows: Whole-cell functional agonist activity, FLIPR Ca2+ release, U2OS-based human M3 mAChR stable cell line. The note with it: for EC50: agonist, FLIPR Ca2+ release, U2OS human M3 cells; for Emax: top of curve, % activity vs MAX control ligand, FLIPR Ca2+.
Source text: as §1, §2
One day before the assay, M1, M3, and M5 cells were thawed out and plated at 10,000 cells/well into black-walled, clear-bottom, Poly-D-lysine coated 384-well microplates and incubated at 37° C. and 5% CO2 in MEME+10% FBS+1× penicillin/streptomycin/glutamine, for the M1 and M3 cell lines and F-12+10% FBS+1× penicillin/streptomycin/glutamine for the M5 cell line. On the day of the test, the media was aspirated and replaced with […] fluo-4 dye loading buffer (1× dye, 1× additive A and 2.5 mM fresh probenecid in HBSS and 20 mM HEPES) and incubated at 37° C. and 5% CO2 for 45 minutes. After the incubation, cells were removed from the incubator, […] of HBSS and 20 mM HEPES was added for a total volume of […], and the cells were allowed to equilibrate at room temperature for 15 minutes in the dark before compounds were applied, by adding 4× compound solution in […] of HBSS, 0.4% DMSO and 20 mM HEPES buffer (made from a 10 mM compound stock solution in 100% DMSO), and responses were recorded for 2 minutes in FLIPR Tetra after compound administration. The M1 and M5 responses were analyzed using the CBIS data analysis suite (ChemInnovation, CA).
as §3

Data set [2] can be described thus: Storage stability of the tartrate salt (reanalysis by LC-MS, 1H NMR, 19F NMR). The conditions noted are these: six months of storage at 0° C.; LC-MS, 1H NMR, 19F NMR. The class given is physicochemical. Here is the method:
The tartrate salt of the title compound was unstable at test storage conditions. Although the initial NMR spectra were clean, the LCMS purity was about 75%. After storage at 0° C. for six months, the sample was reanalyzed by ^1H-NMR, ^19F-NMR, and LC-MS.

T2 sequence (P20309 whole entry): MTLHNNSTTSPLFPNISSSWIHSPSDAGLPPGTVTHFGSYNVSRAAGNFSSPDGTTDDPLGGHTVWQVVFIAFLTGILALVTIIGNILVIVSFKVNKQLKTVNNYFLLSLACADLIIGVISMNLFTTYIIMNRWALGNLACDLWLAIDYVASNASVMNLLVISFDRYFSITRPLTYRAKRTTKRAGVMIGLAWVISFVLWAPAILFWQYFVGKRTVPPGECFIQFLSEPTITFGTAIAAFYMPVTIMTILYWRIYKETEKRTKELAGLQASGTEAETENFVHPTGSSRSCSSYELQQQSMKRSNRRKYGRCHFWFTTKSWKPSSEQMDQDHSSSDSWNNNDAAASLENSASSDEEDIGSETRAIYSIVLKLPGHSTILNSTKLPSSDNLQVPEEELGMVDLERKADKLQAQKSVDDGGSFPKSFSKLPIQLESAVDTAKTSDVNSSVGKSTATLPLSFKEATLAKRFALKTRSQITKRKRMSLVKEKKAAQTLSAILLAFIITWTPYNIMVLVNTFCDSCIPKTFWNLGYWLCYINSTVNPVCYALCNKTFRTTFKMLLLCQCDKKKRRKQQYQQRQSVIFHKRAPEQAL

What is called EC50 is the concentration giving half of the maximal effect. Read a high EC50 as lower potency in that assay. In general, Emax refers to the maximal effect, on the per cent scale that the assay sets. The microsomal CLint is a measure of how fast metabolising enzymes remove a compound, apart from limits set by blood flow. What is called half-life is the time in which the quantity being followed falls by half. At human M1 mAChR, `CN1CCC=C(c2nsnc2OCCCCCC(F)(F)F)C1` [Example 1, 3-(1-Methyl-1,2,5,6-tetrahydropyridin-3-yl)-4-((6,6,6-trifluorohexyl)oxy)-1,2,5-thiadiazole] yielded an EC50 of 3.7 nM and a maximum response (Emax) of 90%. For the same compound, in data set [1], the intrinsic metabolic clearance (microsomal CLint) at 100 nM amounted to 447 µL/min/mg, the “Parent at 60 min (%)” value turned out to be 7% and the half-life at 100 nM amounted to 16 min. Also, at human M3 mAChR, the concentration giving a half-maximal response (EC50) is above 10000 nM and the Emax was 16%. In data set [2], the “storage stability of tartrate salt” value is listed as “no meaningful changes were observed”.

For `CN1CCC=C(c2nsnc2OCCCCCC(F)F)C1` [Example 6, 3-((6,6-difluorohexyl)oxy)-4-(1-methyl-1,2,5,6-tetrahydropyridin-3-yl)-1,2,5-thiadiazole], at human M1 mAChR, the response was half-maximal at 2.5 nM (EC50) and the maximal effect (Emax) was 94%. For the same compound, in data set [1], the microsomal CLint at 100 nM turned out to be 413 µL/min/mg, the “Parent at 60 min (%)” value came to 8% and the half-life at 100 nM came out at 17 min. On human M3 mAChR, this compound registered an EC50 above 10000 nM and an Emax of 11%.

For `CN1CCC=C(c2nsnc2OCCCCCCF)C1` [Example 7, 3-((6-Fluorohexyl)oxy)-4-(1-methyl-1,2,5,6-tetrahydropyridin-3-yl)-1,2,5-thiadiazole], at human M1 mAChR, the response was half-maximal at 3.1 nM (EC50) and the Emax came out at 93%. In addition, in data set [1], the microsomal CLint at 100 nM came to 553 µL/min/mg, the “Parent at 60 min (%)” value is 3% and the half-life at 100 nM came to 13 min. On human M3 mAChR, this compound displayed an EC50 above 10000 nM and an Emax of 7%.

At human M1 mAChR, `CN1CCC=C(c2nsnc2OCCCCC(C)(F)F)C1` [Example 8, 3-((5,5-Difluorohexyl)oxy)-4-(1-methyl-1,2,5,6-tetrahydropyridin-3-yl)-1,2,5-thiadiazole] returned a concentration for a half-maximal effect (EC50) of 5.7 nM and an Emax of 87%. In data set [1], the intrinsic clearance (microsomal CLint) at 100 nM is 711 µL/min/mg, the “Parent at 60 min (%)” value turned out to be 2% and the half-life at 100 nM came out at 10 min. At human M3 mAChR, this compound displayed a concentration giving a half-maximal response (EC50) above 10000 nM and an Emax of 7%.

At human M1 mAChR, `CCC(F)(F)CCCOc1nsnc1C1=CCCN(C)C1` [Example 9, 3-((4,4-Difluorohexyl)oxy)-4-(1-methyl-1,2,5,6-tetrahydropyridin-3-yl)-1,2,5-thiadiazole] gave a 50% effective concentration (EC50) of 28.4 nM and an Emax of 46%. In addition, in data set [1], the intrinsic metabolic clearance (microsomal CLint) at 100 nM stood at 576 µL/min/mg, the “Parent at 60 min (%)” value amounted to 3% and the half-life at 100 nM turned out to be 12 min. Moreover, at human M3 mAChR, the EC50 was above 10000 nM and the Emax stood at 2%.

`CCCCC(F)(F)COc1nsnc1C1=CCCN(C)C1` [Example 11, 3-((2,2-Difluorohexyl)oxy)-4-(1-methyl-1,2,5,6-tetrahydropyridin-3-yl)-1,2,5-thiadiazole]: on human M1 mAChR, the response was half-maximal at 29 nM (EC50) and the Emax is 32%. Also, in data set [1], the microsomal CLint at 100 nM came out at 2000 µL/min/mg, the “Parent at 60 min (%)” value is given as 7% and the half-life at 100 nM was found to be 3 min. For the same compound, on human M3 mAChR, the EC50 was above 10000 nM and the Emax was 3%.

Source of the values: patent publication US11534434B2 (Karuna Therapeutics, Inc., priority 2019, dated 2022).
